Laboratory results: PubChem BioAssay AID624275 (Broad Institute, 2012)
The source made the active and inactive calls. No rule for the calls is given here.

These compounds were tested on CqsS sensor histidine kinase (Vibrio cholerae) (assay: Light production inducers, absence of autoinducers, V. cholerae delta luxQ strain, confirmatory (AID 624275)). Conditions: V. cholerae WN1103 delta luxQ, luciferase luminescence, 6 h.

First: CCCn1nnnc1NCc1ccc(N(CC)CC)cc1
Second: CCCn1nnnc1NCc1ccc(C(C)C)cc1
The AC40 of the first is 3.1-fold higher: 90.1 nM for the first, 28.8 nM for the second.

First: CCOc1ccc(Nc2ccc3nonc3c2[N+](=O)[O-])cc1
Second: Cc1ccc(OCCNC(=O)c2cccc(C)c2)cc1
The AC40 of the first is 1.9-fold higher: 596 nM for the first, 309 nM for the second.

Compared with O=C(Cc1ccc(-c2ccccc2)cc1)NC1CCCC1, CCC(C)NC(=O)Cc1ccc(-c2ccccc2)cc1 (stereo not given) is 16-fold higher in AC40: 118 nM for the first, 1920 nM for the second.

Compared with COc1ccccc1NC(=O)COC(=O)c1cc2c(s1)CCC2, COc1ccccc1NC(=O)COC(=O)c1ccc(C)cc1 is 12-fold higher in AC40: 184 nM for the first, 2240 nM for the second.

Compared with COc1ccc(Cl)cc1NC(=O)COC(=O)c1ccc(C)o1, COc1ccccc1NC(=O)COC(=O)c1oc2ccccc2c1C is 4.1-fold higher in AC40: 489 nM for the first, 2010 nM for the second.

First: CCn1nnnc1NCc1ccc(N2CCCC2)cc1
Second: CCCn1nnnc1NCc1ccc(N2CCCC2)cc1
The AC40 of the first is 5.1-fold lower: 5.71 nM for the first, 29.2 nM for the second.

Going from O=c1ncn(-c2cccc(Cl)c2)c2ccccc12 to Cc1ccc2cc3c(NC(=O)c4ccco4)nn(C)c3nc2c1, the AC40 rises from 29.4 nM to 4220 nM (140-fold).

O=C(Nc1nnc(-c2ccc3c(c2)OCCO3)o1)C1CCCCC1 gave an AC40 of 2070 nM.

In the case of Cc1c(Cl)cccc1-n1cnc(=O)c2ccccc21, the AC40 is reported as > 35000 nM (inactive).

Same assay, conditions: V. cholerae WN1103 delta luxQ, luciferase luminescence, 6 h; at 35 µM (top of the series)

Cc1ccc(CC(=O)NC2CCCC2)cc1 was tested, and the activation was 10.3% (inactive).
With CCCn1nnnc1NCc1ccccc1Cl the activation was 0.419% (inactive).
In the case of CCn1c(CC(=O)Nc2cccc(Cl)c2Cl)nnc1SCCOc1ccc(OC)cc1, the activation is reported as 0.37% (inactive).
CCn1nnc(NCc2ccc(C)cc2)n1 was tested, and the activation was 0.153% (inactive).
